Where a chain is given by its changes, count along the chain named.
How the values were obtained:
[1] = biological target: Calcium/calmodulin-dependent protein kinase type 1D (Homo sapiens) (UniProt Q8IU85); test: Selectivity interaction (ActivX KiNativ screen (kinase selectivity in THP-1 cell lysates)) EUB0000639a CAMK1D; assay type: subcellular; conditions: lysate, at 1 µM
[2] = system: T1, Receptor-type tyrosine-protein kinase FLT3 (Homo sapiens), P36888 [N841I]; test: (§1) Selectivity interaction (KinomeScan (DiscoverX)) EUB0000229b FLT3; conditions: at 1 µM
T1 sequence (whole entry): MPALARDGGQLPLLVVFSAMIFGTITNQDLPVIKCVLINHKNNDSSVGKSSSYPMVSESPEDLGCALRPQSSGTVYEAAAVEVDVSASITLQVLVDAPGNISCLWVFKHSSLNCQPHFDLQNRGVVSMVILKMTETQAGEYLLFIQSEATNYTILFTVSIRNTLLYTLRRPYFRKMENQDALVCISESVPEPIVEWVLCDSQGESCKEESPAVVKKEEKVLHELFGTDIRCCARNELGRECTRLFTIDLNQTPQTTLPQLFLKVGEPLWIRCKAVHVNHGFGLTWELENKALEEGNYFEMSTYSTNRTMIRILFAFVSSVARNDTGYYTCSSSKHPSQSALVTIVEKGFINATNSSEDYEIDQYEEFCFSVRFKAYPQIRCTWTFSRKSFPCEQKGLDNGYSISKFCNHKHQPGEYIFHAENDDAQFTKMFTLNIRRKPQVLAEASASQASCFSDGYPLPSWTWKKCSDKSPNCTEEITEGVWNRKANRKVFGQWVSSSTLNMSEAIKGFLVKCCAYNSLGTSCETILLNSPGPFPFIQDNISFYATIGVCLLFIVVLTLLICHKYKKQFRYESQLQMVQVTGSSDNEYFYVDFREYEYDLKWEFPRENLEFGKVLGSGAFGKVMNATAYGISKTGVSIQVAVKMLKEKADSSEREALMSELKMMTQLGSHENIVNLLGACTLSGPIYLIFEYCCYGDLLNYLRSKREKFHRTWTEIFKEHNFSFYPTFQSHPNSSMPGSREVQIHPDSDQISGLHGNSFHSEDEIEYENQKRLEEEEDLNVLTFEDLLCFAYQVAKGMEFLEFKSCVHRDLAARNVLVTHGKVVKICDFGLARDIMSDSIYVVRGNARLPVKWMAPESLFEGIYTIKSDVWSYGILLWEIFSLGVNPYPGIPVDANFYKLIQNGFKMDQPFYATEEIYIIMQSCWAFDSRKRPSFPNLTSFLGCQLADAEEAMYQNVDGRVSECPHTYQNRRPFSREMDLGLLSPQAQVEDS

[3] = system: T2, Receptor-type tyrosine-protein kinase FLT3 (Homo sapiens), P36888 [D835Y]; test: as §1; conditions: at 1 µM
T2 sequence (whole entry): T1 sequence (whole entry) with D835Y, I841N

[4] = system: T3, Receptor-type tyrosine-protein kinase FLT3 (Homo sapiens), P36888 [K663Q]; test: as §1; conditions: at 1 µM
T3 sequence (whole entry): T1 sequence (whole entry) with K663Q, I841N

[5] = system: Receptor-type tyrosine-protein kinase FLT3 (Homo sapiens), P36888 [UNDEFINED MUTATION]; test: as §1; conditions: at 1 µM

Sequence of Calcium/calmodulin-dependent protein kinase type 1D (Homo sapiens) (Q8IU85 whole entry, looked up): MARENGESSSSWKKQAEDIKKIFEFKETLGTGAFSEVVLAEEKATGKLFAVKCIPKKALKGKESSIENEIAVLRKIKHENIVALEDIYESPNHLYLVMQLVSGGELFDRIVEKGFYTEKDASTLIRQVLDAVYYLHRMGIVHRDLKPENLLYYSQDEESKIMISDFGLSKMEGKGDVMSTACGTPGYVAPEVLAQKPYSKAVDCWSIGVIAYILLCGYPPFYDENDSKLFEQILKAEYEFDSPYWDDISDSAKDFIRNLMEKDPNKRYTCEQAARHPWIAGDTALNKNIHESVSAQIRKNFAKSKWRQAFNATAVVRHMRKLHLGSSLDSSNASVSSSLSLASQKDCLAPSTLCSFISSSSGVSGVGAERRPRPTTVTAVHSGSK

SMILES | % of inhibition [1] [%] | % binding [2] [%] | % binding [3] [%] | % binding [4] [%] | % binding [5] [%]
CC[C@@H]1[C@H](F)C(=O)N[C@@H]1COc1nccc2cc(C(N)=O)c(OC)cc12 [ZIMLOVISERTIB] | -1.2 |  |  |  | 
COc1cc(N(C)c2ccnc3ccc(C(F)(F)F)cc23)cc(OC)c1OC |  | 84 | 69 | 76 | 54
